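The compound was tested at five concentrations on cells cultured in 96-well plates, with a 48-hour exposure period. GI50 is the concentration that inhibits growth by half.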 Activity calls are given as the source filed them. No stated cut-off is given here; in the data, active = GI50 up to about 1.1 µM and inactive = higher. Peptide text beside a SMILES is read from it. * marks the point of attachment. OSu = O=C1CCC(=O)N1O*
What was measured:
Experiment in all cases: NCI anticancer screen, dose series, 48 h
UACC-62 = system: UACC-62
SN12C = system: SN12C
SK-OV-3 = system: SK-OV-3
T47D = system: T47D
SF-295 = system: SF-295
SNB-75 = system: SNB-75
MDA-N = system: MDA-N
SNB-19 = system: SNB-19
HCT-15 = system: HCT-15
786-0 = system: 786-0
PC-3 = system: PC-3
OVCAR-5 = system: OVCAR-5
MOLT-4 = system: MOLT-4
K562 = system: K562
DU-145 = system: DU-145
RPMI-8226 = system: RPMI-8226
A498 = system: A498
HT-29 = system: HT-29
OVCAR-4 = system: OVCAR-4
CAKI-1 = system: CAKI-1
HCT-116 = system: HCT-116
HOP-92 = system: HOP-92
SF-539 = system: SF-539
SK-MEL-28 = system: SK-MEL-28
M14 = system: M14
UACC-257 = system: UACC-257
MDA-MB-435 = system: MDA-MB-435
COLO 205 = system: COLO 205
BT-549 = system: BT-549
SR = system: SR
KM12 = system: KM12
ACHN = system: ACHN
HOP-62 = system: HOP-62
NCI-H522 = system: NCI-H522
SF-268 = system: SF-268
NCI-H226 = system: NCI-H226
OVCAR-8 = system: OVCAR-8
UO-31 = system: UO-31
HL-60 = system: HL-60
SK-MEL-5 = system: SK-MEL-5
HCC 2998 = system: HCC 2998
Malme-3M = system: Malme-3M
CCRF-CEM = system: CCRF-CEM
IGROV-1 = system: IGROV-1
SW-620 = system: SW-620
Hs-578T = system: Hs-578T
A549 = system: A549
MCF7 = system: MCF7
NCI-H23 = system: NCI-H23
OVCAR-3 = system: OVCAR-3
EKVX = system: EKVX
NCI-H460 = system: NCI-H460
RXF 393 = system: RXF 393
SK-MEL-2 = system: SK-MEL-2
TK-10 = system: TK-10
MDA-MB-231 = system: MDA-MB-231
U-251 = system: U-251

What does the source list for `CC(=O)Nc1ccc(NC(=O)c2c(Cl)c(Cl)c(Cl)c(Cl)c2-c2nc3ccccc3[nH]2)cc1`?
GI50 (UACC-62): 27.8 µM (inactive); GI50 (SN12C): 35.4 µM (inactive); GI50 (SK-OV-3): 63.4 µM (inactive); GI50 (T47D): 25.7 µM (inactive); GI50 (SF-295): 38.3 µM (inactive); GI50 (SNB-75): 73.3 µM (inactive); GI50 (MDA-N): 35.3 µM (inactive); GI50 (SNB-19): 54.2 µM (inactive); GI50 (HCT-15): 85.1 µM; GI50 (786-0): 49.1 µM (inactive); GI50 (PC-3): 44.7 µM (inactive); GI50 (OVCAR-5): 67.1 µM (inactive); GI50 (MOLT-4): 21.5 µM (inactive); GI50 (K562): 27.5 µM (inactive); GI50 (DU-145): 46.8 µM (inactive); GI50 (RPMI-8226): 23 µM (inactive); GI50 (A498): 35 µM (inactive); GI50 (HT-29): 35.7 µM (inactive); GI50 (OVCAR-4): 45.2 µM (inactive); GI50 (CAKI-1): 38.7 µM (inactive); GI50 (HCT-116): 32.1 µM (inactive); GI50 (HOP-92): 15.7 µM (inactive); GI50 (SF-539): 38.5 µM (inactive); GI50 (SK-MEL-28): 40.2 µM (inactive); GI50 (M14): 35.7 µM (inactive); GI50 (UACC-257): 40.1 µM (inactive); GI50 (MDA-MB-435): 35.1 µM (inactive); GI50 (COLO 205): 17.6 µM (inactive); GI50 (BT-549): 43.1 µM (inactive); GI50 (SR): 27.2 µM (inactive); GI50 (KM12): 28.2 µM (inactive); GI50 (ACHN): 39.2 µM (inactive); GI50 (HOP-62): 53.3 µM (inactive); GI50 (NCI-H522): 36.7 µM (inactive); GI50 (SF-268): 53.5 µM (inactive); GI50 (NCI-H226): 35.4 µM (inactive); GI50 (OVCAR-8): 45.1 µM (inactive); GI50 (UO-31): 47.5 µM (inactive); GI50 (HL-60): 25.9 µM (inactive); GI50 (SK-MEL-5): 28.6 µM (inactive); GI50 (HCC 2998): 33.6 µM (inactive); GI50 (Malme-3M): 51.4 µM (inactive); GI50 (CCRF-CEM): 32.7 µM (inactive); GI50 (IGROV-1): 20.5 µM (inactive); GI50 (SW-620): 48.5 µM (inactive); GI50 (Hs-578T): 77.4 µM (inactive); GI50 (A549): 36.4 µM (inactive); GI50 (MCF7): 26.7 µM (inactive); GI50 (NCI-H23): 32.5 µM (inactive); GI50 (OVCAR-3): 48.1 µM (inactive); GI50 (EKVX): 33.3 µM (inactive); GI50 (NCI-H460): 24.7 µM (inactive); GI50 (RXF 393): 29.4 µM (inactive)

Which results are given for `NCCCCC(NC(=O)C(N)Cc1ccc(O)cc1)C(=O)NC(Cc1ccc(O)cc1)C(=O)NC(CCCCN)C(=O)ON1C(=O)CCC1=O` (centres undefined) (H-YKYK-OSu; configuration not given here)?
GI50 (UACC-62): > 100 µM (inactive); GI50 (SN12C): > 100 µM (inactive); GI50 (T47D): > 100 µM (inactive); GI50 (SNB-75): > 100 µM (inactive); GI50 (MDA-N): > 100 µM (inactive); GI50 (SNB-19): > 100 µM (inactive); GI50 (HCT-15): > 100 µM; GI50 (786-0): > 100 µM (inactive); GI50 (PC-3): > 100 µM (inactive); GI50 (OVCAR-5): > 100 µM (inactive); GI50 (SK-MEL-2): > 100 µM (inactive); GI50 (MOLT-4): > 100 µM (inactive); GI50 (K562): > 100 µM (inactive); GI50 (RPMI-8226): > 100 µM (inactive); GI50 (A498): > 100 µM (inactive); GI50 (HT-29): > 100 µM (inactive); GI50 (TK-10): > 100 µM (inactive); GI50 (HCT-116): > 100 µM (inactive); GI50 (HOP-92): > 100 µM (inactive); GI50 (SK-MEL-28): > 100 µM (inactive); GI50 (M14): > 100 µM (inactive); GI50 (UACC-257): > 100 µM (inactive); GI50 (COLO 205): > 100 µM (inactive); GI50 (BT-549): > 100 µM (inactive); GI50 (SR): > 100 µM (inactive); GI50 (KM12): > 100 µM (inactive); GI50 (ACHN): > 100 µM (inactive); GI50 (HOP-62): > 100 µM (inactive); GI50 (NCI-H226): > 100 µM (inactive); GI50 (OVCAR-8): > 100 µM (inactive); GI50 (UO-31): > 100 µM (inactive); GI50 (HL-60): > 100 µM (inactive); GI50 (SK-MEL-5): > 100 µM (inactive); GI50 (HCC 2998): > 100 µM (inactive); GI50 (Malme-3M): > 100 µM (inactive); GI50 (IGROV-1): > 100 µM (inactive); GI50 (MDA-MB-231): > 100 µM (inactive); GI50 (SW-620): > 100 µM (inactive); GI50 (Hs-578T): > 100 µM (inactive); GI50 (U-251): > 100 µM (inactive); GI50 (A549): > 100 µM (inactive); GI50 (MCF7): > 100 µM (inactive); GI50 (NCI-H23): > 100 µM (inactive); GI50 (EKVX): > 100 µM (inactive); GI50 (NCI-H460): > 100 µM (inactive); GI50 (RXF 393): > 100 µM (inactive)

From ChEMBL document CHEMBL1201862, “PubChem BioAssay data set” (2004)
